Patent US20170182108A1, “FERMENTED FOOD EXTRACT COMPOSITION” (priority 2014, published 2017)
Like-named read-outs stand apart in the source and are kept apart here.

Key:
[1] = tested on: thoracic aorta specimens of SHRs; test: measurement test of isometric tension in blood vessels (vasodilatory effect on phenylephrine-constricted ring specimens); assay type: cell-based, rat (spontaneously hypertensive rat, SHR); set-up: dilation rate: dose or concentration left out as unconfirmed; conditions: for concentration from which a vasodilatory effect / dilation reaction is shown: cumulative addition
Procedure: In the examination of each condition, concentration of the active ingredient was checked by identifying fractions showing vasodilatory effect by measurement test of isometric tension in blood vessels at each purification stage.
Thoracic aorta used for the test was removed from a male 10-12 week-old SHR; after removal of the connective tissue, it was cut into a length 2-3 mm to produce ring specimens. The resulting ring specimens were attached to an organ bus filled with Krebs solution of 37° C. (119 mM NaCl/4.7 mM KCl/1.1 mM KH2PO4/1.2 mM MgSO4/25 mM NaHCO3, pH 7.4) in which a mixed gas of 95% O2-5% CO2 was aerated, then a static tension of 1.5 g was applied (UFER UC-05A; Iwashiya Kishimoto Ika Sangyo K.K., Kyoto). Vascular tension was measured by UFER UM-203 transducer (Iwashiya Kishimoto Ika Sangyo). After 60-min incubation from the attachment, the ring specimens were constricted using a vasoconstrictor phenylephrine (final concentration of 0.30 μM). To the constricted ring specimens, commercially available acetylcholine, that is an endothelium-dependent vasodilator (final concentration of 100 μM) was added, and presence/absence of vascular endothelium was determined by presence/absence of vasodilatory effect. Then, the ring specimens were washed with Krebs solution to remove the drugs, incubated at static tension for 10 min, and again constricted by 0.30 μM phenylephrine.

[2] = tested on: systolic blood pressure of SHRs; test: single oral administration test to SHRs (blood pressure by tail cuff method); assay type: in vivo, rat (spontaneously hypertensive rat; conditions: single oral 10^−11 mol/kg, SHR; for maximum decrease in systolic blood pressure: 9 h after administration, compared to the control group; for blood pressure effect compared to the control group: measured 3, 6, 9 and 24 h after administration
Procedure: Animal experiments were carried out according to the animal experiment guidelines of Shinshu University. In the present study, spontaneously hypertensive rats of 10-13 week-old males (SHR/NCrlCrlj, Charles River Laboratories Japan, Yokohama) were used as an experimental animal. SHRs were bred in individual cages in a breeding room controlled with a light-dark cycle of […] and a room temperature of 22-23° C. In acclimation breeding, rat standard diet (MF; Charles River Laboratories) and tap water were fed ad libitum. SHRs are a rat strain that has been isolated in 1963 by selection mating from Wistar-Kyoto rats that had been bred in the animal experimentation center of Kyoto University. They are referred to as spontaneously hypertensive rats or essential hypertensive rats; while systolic blood pressure of the separation maternal. Wistar-Kyoto rats is approximately 135 mmHg for mature males and approximately 132 mmHg for mature females, blood pressure of almost all the SHRs becomes 150 mmHg or higher at 2 months from the birth, and reaches almost a maximum value at 4-5 months, with many of the values showing 180-210 mmHg. In general, as a model animal of essential hypertension that s said to be account for approximately 90% of the hypertension in humans, SHRs have been used to elucidate pharmacological effects and food functions, and a mechanism of blood pressure rise.
Single oral administration test was carried out using male 12-week-old SHRs with a body weight of 280-320 g. After acclimation breeding for 1 week, the rats were fasted for 12 h, and a sample was given to the rats by a single oral administration. The sample to be administered was dissolved in pure water, and given by a single oral administration with a dose of 10^−11 mol/kg (b.w.) to each 6 SHRs. Sample aqueous solutions of purified acetylcholine, propionylcholine and butyrylcholine were acidic, with a pH of 4.7, 4,3, and 4.4, respectively. To the control group, pure water was administered. Changes in the systolic blood pressure and diastolic blood pressure were measured using non-invasive blood pressure measuring instrument Softron BP-98A (Softron Co., Ltd., Tokyo) by tail cuff method, before administration and at 3, 6, 9, and 24 h after administration. Results of the single oral administration test of purified acetylcholine, propionylcholine and butyrylcholine were shown in FIG. 7.

EC50 ([1]; Rattus norvegicus, hydrochloride salt, summary sentence b69, read-out: EC50 of vasodilatory effect (unit inferred)) [nM] | EC50 ([1]; Rattus norvegicus, hydrochloride salts, cumulative addition 10^−9 to 10^−4 M, read-out: EC50 of vasodilatory effect) [nM] | EC50 ([1]; hydrochloride salts, cumulative addition 10^−9 to 10^−4 M, read-out: EC50 of vasodilatory effect) [nM] | Compound | maximum dilation rate ([1]; at 10^−6 M) [%] | dilation rate ([1]; at the addition) [%] | concentration from which a vasodilatory effect / dilation reaction is shown ([1]; hydrochloride salts) | maximum decrease in systolic blood pressure [2] [mmHg] | maximum dilation rate ([1]; at 10^−4 M) [%] | blood pressure effect compared to the control group [2] | dilation ([1]; at the addition of 10^−4 M) [%]
27.2 | 27.2 | – | CC(=O)OCC[N+](C)(C)C [acetylcholine] | 89.9 | 1.52 | 10^−9 M | 24.7 | – | – | –
– | – | 2270 | CCC(=O)OCC[N+](C)(C)C [propionylcholine] | – | – | 10^−7 M | 8.05 | 95.2 | significant vasodilatory effect | –
– | – | – | CCCC(=O)OCC[N+](C)(C)C [butyrylcholine] | – | – | – | – | – | no significant decrease in blood pressure | 7.14
